Experimental data published in publication PMC2646182 (Journal of the American Chemical Society, 2009).
Entries after “also recorded” stand apart in the source; their conditions may differ. Where two headings read alike, the source gives them in different places.

Assays:
Solvolysis at pH 7 = assay type: physicochemical
L1210 [1] = test: In vitro cytotoxic activity, L1210; assay type: cell-based; conditions: for IC50: L1210 in vitro cytotoxic activity
[2] = Acid-catalyzed solvolysis at pH 3 monitored by UV; assay type: physicochemical; conditions: for solvolysis half-life t1/2 / solvolysis rate constant k: pH 3, 50% MeOH–buffer
w794 and w836 duplex DNA = test: DNA alkylation of the simple alkylation subunits; assay type: biochemical; conditions: for DNA alkylation selectivity (sites): both enantiomers
L1210 [3] = conditions: read-out: L1210 IC50; L1210, introduction; cited from earlier work
[4] = pH 3; cited from earlier work
w836 DNA = test: DNA alkylation, thermally-induced strand cleavage of w836 DNA; assay type: biochemical; conditions: after 24 h
w794 DNA = test: DNA alkylation, thermally-induced strand cleavage of w794 DNA; assay type: biochemical; conditions: 23 °C

Question: Which results are given for COC(=O)c1cc2c([nH]1)[C@@]13C[C@@H]1CN(C(=O)OC(C)(C)C)C3=CC2=O [Compound 7, N-Boc-iso-DSA]?
Answer: solvolysis at pH 7 (Solvolysis at pH 7): no measurable solvolysis; also recorded: stable; fold difference in potency, natural vs unnatural enantiomer (L1210 [1]; L1210): 10 fold; fold less potent than the duocarmycin SA / yatakemycin series counterpart (L1210 [1]; L1210): 5 fold; solvolysis half-life t1/2 [2]: 89 h; solvolysis rate constant k [2]: 2.2e-06 s⁻¹; fold more reactive than N-Boc-DSA (8) ([2]; pH 3 solvolysis): 2 fold; times less efficient DNA alkylation than the full length agents (w794 and w836 duplex DNA): 10^3–10^4 times; DNA alkylation selectivity (sites) (w794 and w836 duplex DNA): 5′-AA and 5′-TA

Question: For COC(=O)c1cc2c([nH]1)C(=O)C=C1N(C(=O)c3cc4cc(OC)c(OC)c(OC)c4[nH]3)CC3CC123 (stereo not shown) [Compound 1, Duocarmycin SA], which IC50 (L1210 [3]) is on record?
Answer: The IC50 was 0.01 nM.

Question: Which IC50 (L1210 [1]) does the source give for COC(=O)c1cc2c([nH]1)[C@@]13C[C@@H]1CN(C(=O)c1cc4cc(OC)c(OC)c(OC)c4[nH]1)C3=CC2=O [(+)-5, iso-duocarmycin SA] here?
Answer: Its IC50 is 0.05 nM.

Question: Which IC50 (L1210 [1]) does the source give for COC(=O)c1cc2c([nH]1)C(=O)C=C1N(C(=O)OC(C)(C)C)CC3CC123 (single isomer, unassigned; (+)) [(+)-8, N-Boc-DSA, reference compound] here?
Answer: Its IC50 is 6 nM.

Question: With COC(=O)c1cc2c([nH]1)C(=O)C=C1N(C(=O)OC(C)(C)C)CC3CC123 (stereo not shown) [Compound 8, N-Boc-DSA, reference compound] as the compound, how does the “solvolysis at pH 7” value (Solvolysis at pH 7) read?
Answer: Its value is “stable”.

Question: What about the “solvolysis half-life t1/2” value [4] of the same compound?
Answer: The value was 177 h.

Question: And the “times less efficient DNA alkylation than the full length agents” value (w794 and w836 duplex DNA)?
Answer: The value was 10^3–10^4 times.

Question: What about the “DNA alkylation selectivity (sites)” value (w794 and w836 duplex DNA) of the same compound?
Answer: The value was 5′-AA and 5′-TA.

Question: For COC(=O)c1cc2c([nH]1)C(=O)C=C1N(C(=O)c3cc4cc(OC)c(OC)c(OC)c4[nH]3)CC3CC123 (single isomer, unassigned; (-)) [(−)-1, duocarmycin SA, reference compound], which IC50 (L1210 [1]) is on record?
Answer: The IC50 was 0.1 nM.

Question: With COC(=O)c1cc2c([nH]1)C(=O)C=C1N(C(=O)OC(C)(C)C)CC3CC123 (single isomer, unassigned; (-)) [(−)-8, N-Boc-DSA, reference compound] as the compound, how does the IC50 (L1210 [1]) read?
Answer: Its IC50 is 60 nM.

Question: Which “fold less DNA alkylation than the yatakemycin enantiomers” value (w836 DNA) does the source give for iso-yatakemycin [(−)-6] here?
Answer: The value was 2–5 fold.

Question: What about the “fold less potent than the duocarmycin SA / yatakemycin series counterpart” value (L1210 [1]; L1210) of the same compound?
Answer: The value was “ca. 5 fold”.

Question: What about the IC50 (L1210 [1]) of the same compound?
Answer: The IC50 was 0.03 nM.

Question: With iso-yatakemycin [(+)-6] as the compound, how does the “fold less DNA alkylation than the yatakemycin enantiomers” value (w836 DNA) read?
Answer: Its value is 2–5 fold.

Question: What about the IC50 (L1210 [1]) of the same compound?
Answer: The IC50 was 0.015 nM.

Question: Which “fold less active than duocarmycin SA” value (L1210 [1]; L1210) does the source give for O-benzyl-iso-duocarmycin SA [(−)-34] here?
Answer: The value was 600 fold.

Question: What about the “fold less active than iso-duocarmycin SA” value (L1210 [1]; L1210) of the same compound?
Answer: Its value is 120 fold.

Question: What about the IC50 (L1210 [1]) of the same compound?
Answer: The IC50 was 6 nM.

Question: And the “DNA alkylation efficiency relative to duocarmycin SA (1)” value (w794 DNA; w794, 22 h, 1 × 10^−5 M)?
Answer: The value was “nearly equivalent to that of 1”.

Question: What about the “fold more reactive than N-Boc-iso-DSA (7)” value ([2]; pH 3 solvolysis) of the same compound?
Answer: Its value is 470 fold.

Question: For COC(=O)c1cc2c([nH]1)[C@@]13C[C@@H]1CN(C(=O)OC(C)(C)C)C3=CC2=O [(−)-7, N-Boc-iso-DSA], which IC50 (L1210 [1]) is on record?
Answer: Its IC50 is 330 nM.

Question: For COC(=O)c1cc2c([nH]1)C(=O)C=C1N(C(=O)c3cc4cc(OC)c(OC)c(OC)c4[nH]3)CC3CC123 (single isomer, unassigned; (+)) [(+)-1, duocarmycin SA, reference compound], which IC50 (L1210 [1]) is on record?
Answer: Its IC50 is 0.01 nM.

Question: Which “solvolysis half-life t1/2” value (Solvolysis at pH 7; pH 7, 50% MeOH–H2O) does the source give for “O-benzyl-iso-duocarmycin SA [Compound 34]” here?
Answer: Its value is 0.20 h.

Question: And the “solvolysis rate constant k” value (Solvolysis at pH 7; pH 7, 50% MeOH–H2O)?
Answer: The value was 0.000977 s⁻¹.

Question: And the “solvolysis half-life t1/2” value [2]?
Answer: The value was 0.19 h.

Question: And the “solvolysis rate constant k” value [2]?
Answer: The value was 0.001 s⁻¹.

Question: What about the “fold more reactive than N-Boc-iso-DSA (7)” value ([2]; pH 3 solvolysis) of the same compound?
Answer: Its value is 470 fold.

Question: Which results are given for COC(=O)c1cc2c([nH]1)[C@@]13C[C@@H]1CN(C(=O)c1cc4cc(OC)c(OC)c(OC)c4[nH]1)C3=CC2=O [Compound 5, iso-duocarmycin SA]?
Answer: fold difference in potency, natural vs unnatural enantiomer (L1210 [1]; L1210): 10 fold; fold less potent than the duocarmycin SA / yatakemycin series counterpart (L1210 [1]; L1210): 5 fold; IC50 (L1210 [1]): 0.05 nM; DNA alkylation site selectivity vs duocarmycin SA counterpart (w794 DNA; w794, 48 h): alkylated the same site as its duocarmycin SA counterpart

Question: For COC(=O)c1cc2c([nH]1)[C@@]13C[C@@H]1CN(C(=O)OC(C)(C)C)C3=CC2=O [(+)-7, N-Boc-iso-DSA], which IC50 (L1210 [1]) is on record?
Answer: The IC50 was 33 nM.

Question: What does the source list for “yatakemycin [Compound 3, reference compound]”?
Answer: IC50 (L1210 [3]): 0.003 to 0.006 nM; IC50 (L1210 [1]): 0.006 nM

Question: Which IC50 (L1210 [1]) does the source give for COC(=O)c1cc2c([nH]1)[C@@]13C[C@@H]1CN(C(=O)c1cc4cc(OC)c(OC)c(OC)c4[nH]1)C3=CC2=O [(−)-5, iso-duocarmycin SA] here?
Answer: The IC50 was 0.55 nM.

Question: Which IC50 (L1210 [1]) does the source give for O-benzyl-iso-duocarmycin SA [(+)-34] here?
Answer: The IC50 was 7 nM.
